Source: publication PMC3499469, “Structural Insight into Inhibitor of Apoptosis Proteins Recognition by a Potent Divalent Smac-Mimetic” (PLoS ONE, 2012)

Biological target: T1, cIAP2-BIR3 (Homo sapiens, UniProt Q13489)
T1 construct: gene BIRC3; BIR3 domain, residues 245-357 as printed (jointly with cIAP1), C-terminal 6xHis-tag, pET21(b), E. coli BL21(DE3)
Assay: fluorescence polarization displacement of fluorescent probe FITC-SMAC
Settings: read-out: Fluorescence Binding Assays IC50 [nM] / cIAP2-BIR3
Excerpt: fluorescence polarization displacement of fluorescent probe FITC-SMAC on cIAP2-BIR3

T1 sequence (Q13489 245-357): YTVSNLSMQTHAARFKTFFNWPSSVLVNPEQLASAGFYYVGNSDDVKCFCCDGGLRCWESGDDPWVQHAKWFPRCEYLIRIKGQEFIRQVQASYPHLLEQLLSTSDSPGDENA

CC[C@H](NC)C(=O)N[C@@H]1C(=O)N2[C@@H](CC[C@@H]1CO)CC[C@H]2C(=O)N[C@@H](c1ccccc1)c1cn(CCCCc2ccc(CCCCn3cc([C@@H](NC(=O)[C@@H]4CC[C@@H]5CC[C@H](CO)[C@H](NC(=O)[C@H](CC)NC)C(=O)N54)c4ccccc4)nn3)cc2)nn1 [9a]
IC50: 1.9 ± 0.9 nM
